Test: Fragrance Release Half-life: hydrolysis kinetics of pro-accords monitored by HPLC
Format: physicochemical
Conditions: 10 mL phosphate buffer (NaH2PO4/H3PO4, approximately pH 2.5) admixed with 90 mL dioxane, 30° C.
Text: Fragrance Release Half-life
The pro-accords useful in the perfume and fine flagrance compositions of the present invention generally have a delayed release of final fragrance accord in order to achieve the increased fragrance longevity benefits described herein. However, the pro-accords generally also deliver the fragrance accords during a time period useful to the formulator, for example, within a time period desirable to the consumer.
For the purposes of the present invention the pro-accords generally have a "Fragrance Release Half-life" of less than or equal to 12 hours when measured in NaH2 PO4 buffer at pH 2.5 and greater than or equal to 0.1 hour when measured in NaH2 PO4 buffer at pH 5.3. The "Fragrance Release Half-life" is defined herein as follows
Pro-accords deliver their corresponding mixture of fragrance raw materials or fragrance accords according to the equation: […]
wherein the accord which is released may be a binary accord or a multiple fragrance raw material accord.
The rate at which the accord is released is defined by the formula: […]
An example of the procedure used to measure the suitability of a pro-accord for use in the fragrance delivery systems at pH 2.5 is as follows. […] Next 10 mL of the phosphate buffer is admixed with 90 mL of dioxane and the pro-fragrance to be analyzed is added. The hydrolysis kinetics are then monitored by conventional HPLC at 30° C. […]

| t1/2 (Fragrance Release Half-life) [h] | SMILES |
| --- | --- |
| 4.8 | c1ccc(CCOC(OCCc2ccccc2)(OCCc2ccccc2)OCCc2ccccc2)cc1 [tetrakis(phenylethyl) orthocarbonate, Tetrakis(phenylethyl) Orthocarbonate] |
| 5.9 | c1ccc(CCOC(OCCc2ccccc2)OCCc2ccccc2)cc1 [tris(phenylethyl) orthoformate, Tris(phenylethyl) Orthoformate] |
